Test results from patent publication US9670227B2, “Thienopyrimidine derivatives, a process for their preparation and pharmaceutical compositions containing them” (LES LABORATOIRES SERVIER, priority 2013, dated 2017).

Molecular target: Mcl-1 protein (UniProtKB primary accession number: Q07820) (Homo sapiens, UniProt Q07820)
Experiment: Inhibition of Mcl-1 by fluorescence polarisation, Method 1
Type: binding
Conditions: fluorescence polarisation test; Method 2 values are underlined in the patent (underlining not visible here); read-out: IC50 (M) Mcl-1 FP
Experimental: The relative binding potency of each compound was determined via Fluorescence Polarisation (FP).
An 11 point serial dilution of each compound was prepared in DMSO and 2 μl transferred into flat bottomed, low binding, 384-well plate (final DMSO concentration 5%). 38 μl of buffer (10 mM 4-(2-hydroxyethyl)-1-piperazineethanesulfonic acid [HEPES], 150 mM NaCl, 0.05% Tween 20, pH 7.4), containing the Fluorescein labelled ligand (final concentration 1 nM) and Mcl-1 protein (final concentration 5 nM) was then added.

Sequence of Mcl-1 protein (Q07820 whole entry): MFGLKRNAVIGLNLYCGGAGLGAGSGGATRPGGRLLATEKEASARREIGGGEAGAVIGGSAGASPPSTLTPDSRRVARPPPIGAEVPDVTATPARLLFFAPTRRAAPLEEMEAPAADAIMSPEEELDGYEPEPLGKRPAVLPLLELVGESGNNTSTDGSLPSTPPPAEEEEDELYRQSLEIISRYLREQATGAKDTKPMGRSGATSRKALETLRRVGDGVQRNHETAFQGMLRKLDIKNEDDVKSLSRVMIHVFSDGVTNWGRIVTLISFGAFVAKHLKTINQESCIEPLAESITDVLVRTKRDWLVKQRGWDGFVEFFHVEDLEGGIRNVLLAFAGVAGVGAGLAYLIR

First: Cc1c(-c2c(-c3ccc(F)cc3)sc3ncnc(OC(Cc4ccccc4OCc4ccnc(-c5ccco5)n4)C(=O)O)c23)ccc(OCCN2CCN(C)CC2)c1Cl [Example 117, (2R)-2-{[(5Sa)-5-{3-chloro-2-methyl-4-[2-(4-methylpiperazin-1-yl)ethoxy]phenyl}-6-(4-fluorophenyl)thieno[2,3-d]pyrimidin-4-yl]oxy}-3-(2-{[2-(furan-2-yl)pyrimidin-4-yl]methoxy}phenyl)propanoic acid]
Second: Cc1cnccc1-c1nccc(COc2ccccc2CC(Oc2ncnc3sc(-c4ccc(F)cc4)c(-c4ccc(OCCN5CCN(C)CC5)c(Cl)c4C)c23)C(=O)O)n1 [Example 120, (2R)-2-{[(5Sa)-5-{3-chloro-2-methyl-4-[2-(4-methylpiperazin-1-yl)ethoxy]phenyl}-6-(4-fluorophenyl)thieno[2,3-d]pyrimidin-4-yl]oxy}-3-(2-{[2-(3-methylpyridin-4-yl)pyrimidin-4-yl]methoxy}phenyl)propanoic acid]
The IC50 of the first is 1.6-fold higher: 6.1e-09 M for the first, 3.8e-09 M for the second. The second is the more potent here.

`Cc1ccncc1-c1nccc(COc2ccccc2CC(Oc2ncnc3sc(-c4ccc(F)cc4)c(-c4ccc(OCCN5CCN(C)CC5)c(Cl)c4C)c23)C(=O)O)n1` [Example 123, (2R)-2-{[(5Sa)-5-{3-chloro-2-methyl-4-[2-(4-methylpiperazin-1-yl)ethoxy]phenyl}-6-(4-fluorophenyl)thieno[2,3-d]pyrimidin-4-yl]oxy}-3-(2-{[2-(4-methylpyridin-3-yl)pyrimidin-4-yl]methoxy}phenyl)propanoic acid] and `Cc1c(-c2c(-c3ccc(F)o3)sc3ncnc(OC(Cc4ccccc4OCc4ccnc(-c5ccncc5)n4)C(=O)O)c23)ccc(OCCN2CCN(C)CC2)c1Cl` [Example 172, (2R)-2-{[(5Sa)-5-{3-chloro-2-methyl-4-[2-(4-methylpiperazin-1-yl)ethoxy]phenyl}-6-(5-fluorofuran-2-yl)thieno[2,3-d]pyrimidin-4-yl]oxy}-3-(2-{[2-(pyridin-4-yl)pyrimidin-4-yl]methoxy}phenyl)propanoic acid] are within 1.5-fold of each other in IC50: 4.3e-09 M for the first, 3e-09 M for the second.

Compared with `COc1ccccc1-c1nccc(COc2ccccc2CC(Oc2ncnc3sc(-c4ccc(F)cc4)c(-c4ccc(OCCN(C)C)c(Cl)c4C)c23)C(=O)O)n1` [Example 135, (2R)-2-{[(5Sa)-5-{3-chloro-4-[2-(dimethylamino)ethoxy]-2-methylphenyl}-6-(4-fluorophenyl)thieno[2,3-d]pyrimidin-4-yl]oxy}-3-(2-{[2-(2-methoxyphenyl)pyrimidin-4-yl]methoxy}phenyl)propanoic acid], `Cc1c(-c2c(-c3ccc(F)cc3)sc3ncnc(OC(Cc4ccccc4OCc4cnccn4)C(=O)O)c23)ccc(OCCN2CCOCC2)c1Cl` [Example 148, (2R)-2-{[(5Sa)-5-{3-chloro-2-methyl-4-[2-(morpholin-4-yl)ethoxy]phenyl}-6-(4-fluorophenyl)thieno[2,3-d]pyrimidin-4-yl]oxy}-3-[2-(pyrazin-2-ylmethoxy)phenyl]propanoic acid] is 3.6-fold higher in IC50: 8.6e-09 M for the first, 3.1e-08 M for the second.

First: COc1ccccc1CC(Oc1ncnc2sc(-c3ccc(F)o3)c(-c3ccc(OCCN4CCN(C)CC4)c(Cl)c3C)c12)C(=O)O [Example 149, (2R)-2-{[(5Sa)-5-{3-chloro-2-methyl-4-[2-(4-methylpiperazin-1-yl)ethoxy]phenyl}-6-(5-fluorofuran-2-yl)thieno[2,3-d]pyrimidin-4-yl]oxy}-3-(2-methoxyphenyl)propanoic acid]
Second: Cc1c(-c2c(-c3ccc(F)o3)sc3ncnc(OC(Cc4ccccc4OCC(F)(F)F)C(=O)O)c23)ccc(OCCN2CCN(C)CC2)c1Cl [Example 158, (2R)-2-{[(5Sa)-5-{3-chloro-2-methyl-4-[2-(4-methylpiperazin-1-yl)ethoxy]phenyl}-6-(5-fluorofuran-2-yl)thieno[2,3-d]pyrimidin-4-yl]oxy}-3-[2-(2,2,2-trifluoroethoxy)phenyl]propanoic acid]
The IC50 of the first is 2.6-fold higher: 1.2e-08 M for the first, 4.6e-09 M for the second.

`Cc1c(-c2c(-c3ccc(F)o3)sc3ncnc(OC(Cc4ccccc4OCC4CCCO4)C(=O)O)c23)ccc(OCCN2CCN(C)CC2)c1Cl` [Example 150, (2R)-2-{[(5Sa)-5-{3-chloro-2-methyl-4-[2-(4-methylpiperazin-1-yl)ethoxy]phenyl}-6-(5-fluorofuran-2-yl)thieno[2,3-d]pyrimidin-4-yl]oxy}-3-{2-[(2R)-tetrahydrofuran-2-ylmethoxy]phenyl}propanoic acid] and `Cc1c(-c2c(-c3ccc(F)o3)sc3ncnc(OC(Cc4ccccc4OCc4ccnn4C)C(=O)O)c23)ccc(OCCN2CCN(C)CC2)c1Cl` [Example 180, (2R)-2-{[(5Sa)-5-{3-chloro-2-methyl-4-[2-(4-methylpiperazin-1-yl)ethoxy]phenyl}-6-(5-fluorofuran-2-yl)thieno[2,3-d]pyrimidin-4-yl]oxy}-3-{2-[(1-methyl-1H-pyrazol-5-yl)methoxy]phenyl}propanoic acid] are within 1.5-fold of each other in IC50: 9.3e-09 M for the first, 8.9e-09 M for the second.

`COCCc1nccc(COc2ccccc2CC(Oc2ncnc3sc(-c4ccc(F)o4)c(-c4ccc(OCCN5CCN(C)CC5)c(Cl)c4C)c23)C(=O)O)n1` [Example 174, (2R)-2-{[(5Sa)-5-{3-chloro-2-methyl-4-[2-(4-methylpiperazin-1-yl)ethoxy]phenyl}-6-(5-fluorofuran-2-yl)thieno[2,3-d]pyrimidin-4-yl]oxy}-3-(2-{[2-(2-methoxyethyl)pyrimidin-4-yl]methoxy}phenyl)propanoic acid] and `COc1nccc(COc2ccccc2CC(Oc2ncnc3sc(-c4ccc(F)o4)c(-c4ccc(OCCN5CCN(C)CC5)c(Cl)c4C)c23)C(=O)O)n1` [Example 176, (2R)-2-{[(5Sa)-5-{3-chloro-2-methyl-4-[2-(4-methylpiperazin-1-yl)ethoxy]phenyl}-6-(5-fluorofuran-2-yl)thieno[2,3-d]pyrimidin-4-yl]oxy}-3-{2-[(2-methoxypyrimidin-4-yl)methoxy]phenyl}propanoic acid] are within 1.5-fold of each other in IC50: 2.3e-09 M for the first, 3.1e-09 M for the second.

`Cc1c(-c2c(-c3ccc(F)o3)sc3ncnc(OC(Cc4ccccc4OCc4ccnc(N5CCOCC5)n4)C(=O)O)c23)ccc(OCCN2CCN(C)CC2)c1Cl` [Example 175, (2R)-2-{[(5Sa)-5-{3-chloro-2-methyl-4-[2-(4-methylpiperazin-1-yl)ethoxy]phenyl}-6-(5-fluorofuran-2-yl)thieno[2,3-d]pyrimidin-4-yl]oxy}-3-(2-{[2-(morpholin-4-yl)pyrimidin-4-yl]methoxy}phenyl)propanoic acid] and `Cc1c(-c2c(-c3ccc(F)o3)sc3ncnc(OC(Cc4ccccc4OCc4cnccn4)C(=O)O)c23)ccc(OCCN2CCN(C)CC2)c1Cl` [Example 189, (2R)-2-{[(5Sa)-5-{3-chloro-2-methyl-4-[2-(4-methylpiperazin-1-yl)ethoxy]phenyl}-6-(5-fluorofuran-2-yl)thieno[2,3-d]pyrimidin-4-yl]oxy}-3-[2-(pyrazin-2-ylmethoxy)phenyl]propanoic acid] are within 1.5-fold of each other in IC50: 3.9e-09 M for the first, 5.5e-09 M for the second.

`Cc1c(-c2c(-c3ccc(F)o3)sc3ncnc(OC(Cc4ccccc4OCc4ccnn4C(C)(C)C)C(=O)O)c23)ccc(OCCN2CCN(C)CC2)c1Cl` [Example 181, (2R)-3-{2-[(1-tert-butyl-1H-pyrazol-5-yl)methoxy]phenyl}-2-{[(5Sa)-5-{3-chloro-2-methyl-4-[2-(4-methylpiperazin-1-yl)ethoxy]phenyl}-6-(5-fluorofuran-2-yl)thieno[2,3-d]pyrimidin-4-yl]oxy}propanoic acid] and `Cc1c(-c2c(-c3ccc(F)o3)sc3ncnc(OC(Cc4ccccc4OCc4ccnn4C(C)C)C(=O)O)c23)ccc(OCCN2CCN(C)CC2)c1Cl` [Example 182, (2R)-2-{[(5Sa)-5-{3-chloro-2-methyl-4-[2-(4-methylpiperazin-1-yl)ethoxy]phenyl}-6-(5-fluorofuran-2-yl)thieno[2,3-d]pyrimidin-4-yl]oxy}-3-(2-{[1-(propan-2-yl)-1H-pyrazol-5-yl]methoxy}phenyl)propanoic acid] are within 1.5-fold of each other in IC50: 4.8e-09 M for the first, 4.4e-09 M for the second.

`CCn1nccc1COc1ccccc1CC(Oc1ncnc2sc(-c3ccc(F)o3)c(-c3ccc(OCCN4CCN(C)CC4)c(Cl)c3C)c12)C(=O)O` [Example 184, (2R)-2-{[(5Sa)-5-{3-chloro-2-methyl-4-[2-(4-methylpiperazin-1-yl)ethoxy]phenyl}-6-(5-fluorofuran-2-yl)thieno[2,3-d]pyrimidin-4-yl]oxy}-3-{2-[(1-ethyl-1H-pyrazol-5-yl)methoxy]phenyl}propanoic acid] and `CCCCn1nccc1COc1ccccc1CC(Oc1ncnc2sc(-c3ccc(F)o3)c(-c3ccc(OCCN4CCN(C)CC4)c(Cl)c3C)c12)C(=O)O` [Example 188, (2R)-3-{2-[(1-butyl-1H-pyrazol-5-yl)methoxy]phenyl}-2-{[(5Sa)-5-{3-chloro-2-methyl-4-[2-(4-methylpiperazin-1-yl)ethoxy]phenyl}-6-(5-fluorofuran-2-yl)thieno[2,3-d]pyrimidin-4-yl]oxy}propanoic acid] are within 1.5-fold of each other in IC50: 6e-09 M for the first, 6.4e-09 M for the second.

Going from `COc1ccccc1CC(Oc1ncnc2sc(-c3ccco3)c(-c3ccc(OCCN4CCN(C)CC4)c(Cl)c3C)c12)C(=O)O` [Example 209, (2R)-2-{[(5Sa)-5-{3-chloro-2-methyl-4-[2-(4-methylpiperazin-1-yl)ethoxy]phenyl}-6-(furan-2-yl)thieno[2,3-d]pyrimidin-4-yl]oxy}-3-(2-methoxyphenyl)propanoic acid] to `Cc1c(-c2c(-c3ccco3)sc3ncnc(OC(Cc4ccccc4OC4CCCc5cccnc54)C(=O)O)c23)ccc(OCCN2CCN(C)CC2)c1Cl` [Example 213, (2R)-2-{[(5Sa)-5-{3-chloro-2-methyl-4-[2-(4-methylpiperazin-1-yl)ethoxy]phenyl}-6-(furan-2-yl)thieno[2,3-d]pyrimidin-4-yl]oxy}-3-[2-(5,6,7,8-tetrahydroquinolin-8-yloxy)phenyl]propanoic acid], the IC50 rises from 9.8e-09 M to 1.8e-08 M (1.8-fold). The first is the more potent here.
